Results reported in patent publication US20250255867A1 (Kadmon Corporation, LLC, priority 2022, published 2025).

Settings: Cohort 3 400 mg QD

With `CC(C)NC(=O)COc1cccc(-c2nc(Nc3ccc4[nH]ncc4c3)c3ccccc3n2)c1` [Belumosudil, 2-{3-[4-(1H-indazol-5-ylamino)-2-quinazolinyl]phenoxy}-N-(propan-2-yl) acetamide] the “Blood loss anaemia: # Events” value was 0, the “Blood loss anaemia: Affected/At Risk” value was 0/21 and the “Blood loss anaemia: Affected/At Risk (%)” value was “(0%)”. The “Bronchial secretion retention: # Events” value was 0, the “Bronchial secretion retention: Affected/At Risk” value was 0/21 and the “Bronchial secretion retention: Affected/At Risk (%)” value was “(0%)”. For the same compound, the “Bronchitis: # Events” value was 1, the “Bronchitis: Affected/At Risk” value was 1/21 and the “Bronchitis: Affected/At Risk (%)” value was “(4.76%)”. For the same compound, the “Bronchoscopy: # Events” value was 0, the “Bronchoscopy: Affected/At Risk” value was 0/21 and the “Bronchoscopy: Affected/At Risk (%)” value was “(0%)”. For the same compound, the “Catheter site haemorrhage: # Events” value was 0, the “Catheter site haemorrhage: Affected/At Risk” value was 0/21 and the “Catheter site haemorrhage: Affected/At Risk (%)” value was “(0%)”. The “Chills: # Events” value was 0, the “Chills: Affected/At Risk” value was 0/21 and the “Chills: Affected/At Risk (%)” value was “(0%)”. For the same compound, the “Chronic kidney disease: # Events” value was 0, the “Chronic kidney disease: Affected/At Risk” value was 0/21 and the “Chronic kidney disease: Affected/At Risk (%)” value was “(0%)”. The “Conjunctival haemorrhage: # Events” value was 1, the “Conjunctival haemorrhage: Affected/At Risk” value was 1/21 and the “Conjunctival haemorrhage: Affected/At Risk (%)” value was “(4.76%)”. The “Conjunctivitis: # Events” value was 3, the “Conjunctivitis: Affected/At Risk” value was 3/21 and the “Conjunctivitis: Affected/At Risk (%)” value was “(14.29%)”. The “Constipation: # Events” value was 4, the “Constipation: Affected/At Risk” value was 3/21 and the “Constipation: Affected/At Risk (%)” value was “(14.29%)”. The “Contrast media allergy: # Events” value was 0, the “Contrast media allergy: Affected/At Risk” value was 0/21 and the “Contrast media allergy: Affected/At Risk (%)” value was “(0%)”. The “Contusion: # Events” value was 4, the “Contusion: Affected/At Risk” value was 3/21 and the “Contusion: Affected/At Risk (%)” value was “(14.29%)”. The “Corneal abrasion: # Events” value was 0, the “Corneal abrasion: Affected/At Risk” value was 0/21 and the “Corneal abrasion: Affected/At Risk (%)” value was “(0%)”. For the same compound, the “Corneal infection: # Events” value was 0, the “Corneal infection: Affected/At Risk” value was 0/21 and the “Corneal infection: Affected/At Risk (%)” value was “(0%)”. For the same compound, the “Cough: # Events” value was 9, the “Cough: Affected/At Risk” value was 7/21 and the “Cough: Affected/At Risk (%)” value was “(33.33%)”. The “Decreased appetite: # Events” value was 4, the “Decreased appetite: Affected/At Risk” value was 4/21 and the “Decreased appetite: Affected/At Risk (%)” value was “(19.05%)”. For the same compound, the “Dehydration: # Events” value was 2, the “Dehydration: Affected/At Risk” value was 2/21 and the “Dehydration: Affected/At Risk (%)” value was “(9.52%)”. The “Depression: # Events” value was 3, the “Depression: Affected/At Risk” value was 3/21 and the “Depression: Affected/At Risk (%)” value was “(14.29%)”. For the same compound, the “Diarrhoea: # Events” value was 11, the “Diarrhoea: Affected/At Risk” value was 7/21 and the “Diarrhoea: Affected/At Risk (%)” value was “(33.33%)”. For the same compound, the “Dizziness: # Events” value was 2, the “Dizziness: Affected/At Risk” value was 2/21 and the “Dizziness: Affected/At Risk (%)” value was “(9.52%)”. The “Drug eruption: # Events” value was 0, the “Drug eruption: Affected/At Risk” value was 0/21 and the “Drug eruption: Affected/At Risk (%)” value was “(0%)”. For the same compound, the “Dry eye: # Events” value was 2, the “Dry eye: Affected/At Risk” value was 2/21 and the “Dry eye: Affected/At Risk (%)” value was “(9.52%)”. For the same compound, the “Dry skin: # Events” value was 1, the “Dry skin: Affected/At Risk” value was 1/21 and the “Dry skin: Affected/At Risk (%)” value was “(4.76%)”. For the same compound, the “Dyspepsia: # Events” value was 1, the “Dyspepsia: Affected/At Risk” value was 1/21 and the “Dyspepsia: Affected/At Risk (%)” value was “(4.76%)”. The “Dysphagia: # Events” value was 3, the “Dysphagia: Affected/At Risk” value was 2/21 and the “Dysphagia: Affected/At Risk (%)” value was “(9.52%)”. For the same compound, the “Dyspnoea exertional: # Events” value was 0, the “Dyspnoea exertional: Affected/At Risk” value was 0/21 and the “Dyspnoea exertional: Affected/At Risk (%)” value was “(0%)”. For the same compound, the “Dyspnoea: # Events” value was 6, the “Dyspnoea: Affected/At Risk” value was 6/21 and the “Dyspnoea: Affected/At Risk (%)” value was “(28.57%)”. The “Embolism: # Events” value was 1, the “Embolism: Affected/At Risk” value was 1/21 and the “Embolism: Affected/At Risk (%)” value was “(4.76%)”. For the same compound, the “Enamel anomaly: # Events” value was 0, the “Enamel anomaly: Affected/At Risk” value was 0/21 and the “Enamel anomaly: Affected/At Risk (%)” value was “(0%)”. For the same compound, the “Epidural lipomatosis: # Events” value was 0, the “Epidural lipomatosis: Affected/At Risk” value was 0/21 and the “Epidural lipomatosis: Affected/At Risk (%)” value was “(0%)”. For the same compound, the “Epstein-Barr virus infection: # Events” value was 0, the “Epstein-Barr virus infection: Affected/At Risk” value was 0/21 and the “Epstein-Barr virus infection: Affected/At Risk (%)” value was “(0%)”. For the same compound, the “Erectile dysfunction: # Events” value was 0, the “Erectile dysfunction: Affected/At Risk” value was 0/21 and the “Erectile dysfunction: Affected/At Risk (%)” value was “(0%)”. The “Eye irritation: # Events” value was 0, the “Eye irritation: Affected/At Risk” value was 0/21 and the “Eye irritation: Affected/At Risk (%)” value was “(0%)”. The “Eye pain: # Events” value was 0, the “Eye pain: Affected/At Risk” value was 0/21 and the “Eye pain: Affected/At Risk (%)” value was “(0%)”. For the same compound, the “Eye pruritus: # Events” value was 0, the “Eye pruritus: Affected/At Risk” value was 0/21 and the “Eye pruritus: Affected/At Risk (%)” value was “(0%)”. For the same compound, the “Fall: # Events” value was 1, the “Fall: Affected/At Risk” value was 1/21 and the “Fall: Affected/At Risk (%)” value was “(4.76%)”. The “Fatigue: # Events” value was 14, the “Fatigue: Affected/At Risk” value was 10/21 and the “Fatigue: Affected/At Risk (%)” value was “(47.62%)”. For the same compound, the “Flatulence: # Events” value was 1, the “Flatulence: Affected/At Risk” value was 1/21 and the “Flatulence: Affected/At Risk (%)” value was “(4.76%)”. For the same compound, the “Flushing: # Events” value was 0, the “Flushing: Affected/At Risk” value was 0/21 and the “Flushing: Affected/At Risk (%)” value was “(0%)”. For the same compound, the “Fungal infection: # Events” value was 0, the “Fungal infection: Affected/At Risk” value was 0/21 and the “Fungal infection: Affected/At Risk (%)” value was “(0%)”. For the same compound, the “Gamma-glutamyltransferase increased: # Events” value was 0, the “Gamma-glutamyltransferase increased: Affected/At Risk” value was 0/21 and the “Gamma-glutamyltransferase increased: Affected/At Risk (%)” value was “(0%)”. The “Gastric ulcer: # Events” value was 0, the “Gastric ulcer: Affected/At Risk” value was 0/21 and the “Gastric ulcer: Affected/At Risk (%)” value was “(0%)”. For the same compound, the “Gastrooesophageal reflux disease: # Events” value was 2, the “Gastrooesophageal reflux disease: Affected/At Risk” value was 2/21 and the “Gastrooesophageal reflux disease: Affected/At Risk (%)” value was “(9.52%)”. The “Generalised oedema: # Events” value was 1, the “Generalised oedema: Affected/At Risk” value was 1/21 and the “Generalised oedema: Affected/At Risk (%)” value was “(4.76%)”. The “Genital infection fungal: # Events” value was 0, the “Genital infection fungal: Affected/At Risk” value was 0/21 and the “Genital infection fungal: Affected/At Risk (%)” value was “(0%)”. The “Glaucoma: # Events” value was 0 and the “Glaucoma: Affected/At Risk” value was 0/21.
